# Source: patent publication US20170211073A1, “ANTISENSE ANTINEOPLASTIC AGENT” (priority 2014, published 2017)
# Tests used:
# [1] = system: gemcitabine-resistant human pancreatic cancer SUIT2 cells; assay: Antitumor effect of YB-1 ASO AmNA into blood, gemcitabine-resistant SUIT2 subcutaneous tumor; format: in vivo, nude mice
# Description: Antitumor effect of administration into blood of YB-1 ASO of AmNA type, of which high safety was confirmed in Example 9 compared with ASO constituted with the conventional BNA, was examined. The human large intestine cancer cells HCT116 were subcutaneously transplanted to the thighs of nude mice. After subcutaneous tumors having a diameter of 6 to 7 mm (average tumor volume, 78 vs. 72 mm^3) were formed, 200 μg/200 μL of YB-1 ASO AmNA was administered (once every two weeks, total 2 times) into the blood from the caudal veins. The diameters of the tumors were measured over time, and tumor volumes calculated in accordance with a calculation formula, (Major axis)×(Minor axis)/2, were compared with those obtained with the control antisense group. The subcutaneous tumors were collected after one week from the second administration (day 28), and weights thereof were compared. In the YB-1 ASO AmNA group, both the tumor diameter and tumor weight were suppressed to about ⅕ of those observed with the control antisense group (FIG. 10, *P<0.05).
# A human pancreatic cancer SUIT2 cell strain was prepared by culturing pancreatic cancer cells resistant to the anticancer agent, gemcitabine, for a long period of time in a medium containing gemcitabine at a low concentration (IC50 value, 100 nM for the resistant strain vs. 5 nM for the parent strain). […]
# [2] = system: large intestine cancer HCT116 cells; assay: Repetitive administration into blood, HCT116 subcutaneous tumor growth; format: in vivo, nude mice; settings: 10 mg/kg BW caudal vein once a week over three weeks, days 14 and 21
# Description: The tumor diameters were measured over time.
# Lewis lung cancer = Lewis lung cancer subcutaneous tumor model; format: in vivo; settings: 10 mg/kg BW caudal vein once a week for three weeks; days 14 and 21; vs control antisense group
# Description: Subcutaneous tumor models of lung cancer, Lewis lung cancer, were created. […] The tumor diameters were measured over time.
# YB-1 [3] = assay: YB-1 expression in H226 by real-time RT-PCR; format: cell-based; settings: Lipofectamine RNAiMax
# Description: The #10 AmNA YB-1 antisense was introduced into cells of the malignant mesothelioma cell strain H226 using the reagent Lipofectamine RNAiMax, and expression of YB-1 was examined by real-time RT-PCR.
# [4] = system: ovarian cancer cell strain SKOV3; assay: SKOV3-luciferase peritoneum inoculation model; format: in vivo; settings: 10 mg/kg BW intraperitoneally once a week for two weeks, vs control group
# Description: Peritoneum inoculation models of ovarian cancer cell strain SKOV3 stably expressing luciferase were prepared. Then, after 1 week from the transplantation of the cancer cells, 10 mg/kg BW of #10 AmNA YB-1 antisense was intraperitoneally administered once a week for two weeks, and the tumor volume was evaluated over time in terms of the luciferase activity.
# [5] = system: gastric cancer cell strain AS44; assay: Proliferation of AS44 cells; format: cell-based
# [6] = system: pancreatic cancer cell strain MIA PaCa-2; assay: Anticancer agent sensitivity enhancement, MIA PaCa-2; format: cell-based; settings: antisense 5 nM, 5-FU, gemcitabine
# Description: The #10 AmNA YB-1 antisense (5 nM) was introduced into cells of the pancreatic cancer cell strain MIA PaCa-2 (FIG. 19A) and ovarian cancer cell strain SKOV-3 (FIG. 19B) using the reagent Lipofectamine RNAiMax, and cell-killing effects of the anticancer agent observed in the presence and absence of the antisense were compared. […] The anticancer agent concentrations that provided equivalent cell-killing effects are shown in blue color (5-FU) or red color (gemcitabine).
# YB-1 [7] = assay: YB-1 knockdown siRNA vs AmNA-AON, mRNA level (real-time RT-PCR); format: cell-based; settings: AsPC-1, MIA PaCa-2, Suit-2; 20 nM; 48 hours
# Description: YB-1-siRNA or YB-1 #10AmNA was introduced (final concentration, 20 nM) into cells of the pancreatic cancer cell strains (AsPC-1, MIA PaCa-2, and Suit-2). After 48 hours, RNAs and proteins were extracted, and the YB-1 expression was evaluated by real-time RT-PCR and Western blotting at the mRNA level (A) and protein level (B), respectively. Both the knockdown efficiencies obtained with siRNA and #10 AmNA-AON were high at the mRNA level, and any clear difference was not observed between them. […] The graphs show mean±SD (n=3, *P<0.05).
substance,measurement,setting,value
TCTcctgcaccCTGg (TCTCCTGCACCCTGG; chemistry not fully specified) [#10AmNA],tumor weight as fraction of control antisense group,[1],about ⅓
same,tumor diameter as fraction of control antisense group,"[1]; 200 μg/200 μL into blood, once every two weeks, total 2 times",about ⅓
same,subcutaneous tumor-suppressing effect,[2],significant subcutaneous tumor-suppressing effect
same,increase of the tumor,Lewis lung cancer,significantly suppressed
same,suppression of YB-1 expression,YB-1 [3],Concentration-dependent suppression
same,tumor volume (luciferase activity),[4],significantly suppressed
same,suppression of proliferation,[5],suppression of proliferation
same,cell-killing effects of the anticancer agent in presence of the antisense,[6],Enhancement of the cell-killing effect
same,knockdown efficiency at the mRNA level,YB-1 [7],high
